pIC50: −log10 of the molar value.
Test system: 855422-203-R-J1-PDC complex spheroid viability
Experiment: Anticancer human tumor 855422-203-R-J1-PDC patient-derived bladder carcinoma cell line growth inhibition
Conditions: for pIC50: curve of first compound; for viability, T/C: stronger effect = lower value
How it was run: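 Complex spheroids of tumor cells with HUVEC and human MSCs, exposed to iadademstat combined with other agents. Each agent tested in half-log steps from near clinical Cmax (else 10 microM top), DMSO ≤0.25%.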

[1] = second compound 0.1 µM, first compound 0.000316 µM
[2] = second compound 0.1 µM, first compound 0.001 µM
[3] = second compound 0.1 µM, first compound 0.00316 µM
[4] = second compound 0.1 µM, first compound 0.01 µM
[5] = second compound 0.1 µM, first compound 0.0316 µM
[6] = second compound 0.1 µM, first compound 0.1 µM
[7] = second compound 0.316 µM, first compound 0.000316 µM
[8] = second compound 0.316 µM, first compound 0.001 µM
[9] = second compound 0.316 µM, first compound 0.00316 µM
[10] = second compound 0.316 µM, first compound 0.01 µM
[11] = second compound 0.316 µM, first compound 0.0316 µM
[12] = second compound 0.316 µM, first compound 0.1 µM
[13] = second compound 1 µM, first compound 0.000316 µM
[14] = second compound 1 µM, first compound 0.001 µM
[15] = second compound 1 µM, first compound 0.00316 µM
[16] = second compound 1 µM, first compound 0.01 µM
[17] = second compound 1 µM, first compound 0.0316 µM
[18] = second compound 1 µM, first compound 0.1 µM
[19] = second compound 3.16 µM, first compound 0.000316 µM
[20] = second compound 3.16 µM, first compound 0.001 µM
[21] = second compound 3.16 µM, first compound 0.00316 µM
[22] = second compound 3.16 µM, first compound 0.01 µM
[23] = second compound 3.16 µM, first compound 0.0316 µM
[24] = second compound 3.16 µM, first compound 0.1 µM
[25] = second compound 10 µM, first compound 0.000316 µM
[26] = second compound 10 µM, first compound 0.001 µM
[27] = second compound 10 µM, first compound 0.00316 µM
[28] = second compound 10 µM, first compound 0.01 µM
[29] = second compound 10 µM, first compound 0.0316 µM
[30] = second compound 10 µM, first compound 0.1 µM
[31] = second compound 0.1 µM, first compound 0.00949 µM
[32] = second compound 0.1 µM, first compound 0.03 µM
[33] = second compound 0.1 µM, first compound 0.0949 µM
[34] = second compound 0.1 µM, first compound 0.3 µM
[35] = second compound 0.1 µM, first compound 0.949 µM
[36] = second compound 0.1 µM, first compound 3 µM
[37] = second compound 0.316 µM, first compound 0.00949 µM
[38] = second compound 0.316 µM, first compound 0.03 µM
[39] = second compound 0.316 µM, first compound 0.0949 µM
[40] = second compound 0.316 µM, first compound 0.3 µM
[41] = second compound 0.316 µM, first compound 0.949 µM
[42] = second compound 0.316 µM, first compound 3 µM
[43] = second compound 1 µM, first compound 0.00949 µM
[44] = second compound 1 µM, first compound 0.03 µM
[45] = second compound 1 µM, first compound 0.0949 µM
[46] = second compound 1 µM, first compound 0.3 µM
[47] = second compound 1 µM, first compound 0.949 µM
[48] = second compound 1 µM, first compound 3 µM
[49] = second compound 3.16 µM, first compound 0.00949 µM
[50] = second compound 3.16 µM, first compound 0.03 µM
[51] = second compound 3.16 µM, first compound 0.0949 µM
[52] = second compound 3.16 µM, first compound 0.3 µM
[53] = second compound 3.16 µM, first compound 0.949 µM
[54] = second compound 3.16 µM, first compound 3 µM
[55] = second compound 10 µM, first compound 0.00949 µM
[56] = second compound 10 µM, first compound 0.03 µM
[57] = second compound 10 µM, first compound 0.0949 µM
[58] = second compound 10 µM, first compound 0.3 µM
[59] = second compound 10 µM, first compound 0.949 µM
[60] = second compound 10 µM, first compound 3 µM
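Also: drug exposure lasted 7 days starting on day 3 after seeding.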
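For viability, T/C in this document: luminescence viability as percent of DMSO vehicle wells = 100%.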

CC(C)CC(NC(=O)C(Cc1ccccc1)NC(=O)c1cnccn1)B(O)O (stereo not given) + NC1CCC(NC2CC2c2ccccc2)CC1
pIC50 (second compound 0.1 µM): 9.28
pIC50 (second compound 0.316 µM): 9.37
pIC50 (second compound 1 µM): 9.32
pIC50 (second compound 3.16 µM): 9.30
pIC50 (second compound 10 µM): 9.33
viability, T/C [1]: 88%
viability, T/C [2]: 2.43%
viability, T/C [3]: 0.03%
viability, T/C [4]: 0.01%
viability, T/C [5]: 0.02%
viability, T/C [6]: 0.1%
viability, T/C [7]: 67.2%
viability, T/C [8]: 2.02%
viability, T/C [9]: 0.02%
viability, T/C [10]: 1.84%
viability, T/C [11]: 0.01%
viability, T/C [12]: 1.34%
viability, T/C [13]: 78.2%
viability, T/C [14]: 1.83%
viability, T/C [15]: 0.03%
viability, T/C [16]: 0.01%
viability, T/C [17]: 0.01%
viability, T/C [18]: 2.03%
viability, T/C [19]: 81.7%
viability, T/C [20]: 1.37%
viability, T/C [21]: 0.09%
viability, T/C [22]: 0.01%
viability, T/C [23]: 0.02%
viability, T/C [24]: 0.05%
viability, T/C [25]: 74.6%
viability, T/C [26]: 0.29%
viability, T/C [27]: 0.05%
viability, T/C [28]: 0.08%
viability, T/C [29]: 0.12%
viability, T/C [30]: 0.14%

CC(C)CC(NC(=O)CNC(=O)c1cc(Cl)ccc1Cl)B1OC(=O)CC(CC(=O)O)(C(=O)O)O1 (stereo not given) + NC1CCC(NC2CC2c2ccccc2)CC1
pIC50 (second compound 0.1 µM): 8.74
pIC50 (second compound 0.316 µM): 8.77
pIC50 (second compound 1 µM): 8.78
pIC50 (second compound 3.16 µM): 8.79
pIC50 (second compound 10 µM): 8.82
viability, T/C [1]: 95.9%
viability, T/C [2]: 89.3%
viability, T/C [3]: 12.2%
viability, T/C [4]: 1.62%
viability, T/C [5]: 0.03%
viability, T/C [6]: 0.09%
viability, T/C [7]: 100%
viability, T/C [8]: 90.4%
viability, T/C [9]: 3.11%
viability, T/C [10]: 1.91%
viability, T/C [11]: 0.02%
viability, T/C [12]: 0.09%
viability, T/C [13]: 91.9%
viability, T/C [14]: 87%
viability, T/C [15]: 3.87%
viability, T/C [16]: 0.69%
viability, T/C [17]: 0.02%
viability, T/C [18]: 0.1%
viability, T/C [19]: 89.8%
viability, T/C [20]: 85.3%
viability, T/C [21]: 2.25%
viability, T/C [22]: 0.69%
viability, T/C [23]: 0.04%
viability, T/C [24]: 0.1%
viability, T/C [25]: 77.6%
viability, T/C [26]: 76.9%
viability, T/C [27]: 2.8%
viability, T/C [28]: 0.29%
viability, T/C [29]: 0.12%
viability, T/C [30]: 3.15%

Nc1ccccc1NC(=O)c1ccc(CNC(=O)OCc2cccnc2)cc1 + NC1CCC(NC2CC2c2ccccc2)CC1
pIC50 (second compound 0.1 µM): 5.87
pIC50 (second compound 0.316 µM): 5.84
pIC50 (second compound 1 µM): 5.86
pIC50 (second compound 3.16 µM): 5.86
pIC50 (second compound 10 µM): 5.97
viability, T/C [31]: 94.5%
viability, T/C [32]: 85%
viability, T/C [33]: 93.3%
viability, T/C [34]: 96.1%
viability, T/C [35]: 66.1%
viability, T/C [36]: 12.3%
viability, T/C [37]: 93.5%
viability, T/C [38]: 87.5%
viability, T/C [39]: 91.5%
viability, T/C [40]: 95%
viability, T/C [41]: 73.1%
viability, T/C [42]: 9.06%
viability, T/C [43]: 93.2%
viability, T/C [44]: 90.9%
viability, T/C [45]: 98%
viability, T/C [46]: 95.9%
viability, T/C [47]: 69.5%
viability, T/C [48]: 9.07%
viability, T/C [49]: 84.6%
viability, T/C [50]: 84.2%
viability, T/C [51]: 87.8%
viability, T/C [52]: 85.5%
viability, T/C [53]: 72%
viability, T/C [54]: 5.75%
viability, T/C [55]: 88.7%
viability, T/C [56]: 81.2%
viability, T/C [57]: 86.2%
viability, T/C [58]: 87.3%
viability, T/C [59]: 55.2%
viability, T/C [60]: 1.52%

O=C(C=Cc1cccc(S(=O)(=O)Nc2ccccc2)c1)NO + NC1CCC(NC2CC2c2ccccc2)CC1
pIC50 (second compound 0.1 µM): 6.34
pIC50 (second compound 0.316 µM): 6.33
pIC50 (second compound 1 µM): 6.53
pIC50 (second compound 3.16 µM): 6.46
pIC50 (second compound 10 µM): 6.45
viability, T/C [31]: 88.3%
viability, T/C [32]: 88.7%
viability, T/C [33]: 91.3%
viability, T/C [34]: 68.9%
viability, T/C [35]: 15.2%
viability, T/C [36]: 0.2%
viability, T/C [37]: 96.1%
viability, T/C [38]: 88.6%
viability, T/C [39]: 80.7%
viability, T/C [40]: 71.8%
viability, T/C [41]: 17.4%
viability, T/C [42]: 0.2%
viability, T/C [43]: 98%
viability, T/C [44]: 90.1%
viability, T/C [45]: 67.7%
viability, T/C [46]: 59.2%
viability, T/C [47]: 13.4%
viability, T/C [48]: 0.17%
viability, T/C [49]: 94%
viability, T/C [50]: 92%
viability, T/C [51]: 81.6%
viability, T/C [52]: 57.4%
viability, T/C [53]: 7.23%
viability, T/C [54]: 0.14%
viability, T/C [55]: 90.8%
viability, T/C [56]: 82.7%
viability, T/C [57]: 78.9%
viability, T/C [58]: 58.5%
viability, T/C [59]: 5.21%
viability, T/C [60]: 0.59%

O=C(c1cc(Cc2n[nH]c(=O)c3ccccc23)ccc1F)N1CCN(C(=O)C2CC2)CC1 + NC1CCC(NC2CC2c2ccccc2)CC1
pIC50 (second compound 0.1 µM): < 5.00
pIC50 (second compound 0.316 µM): < 5.00
pIC50 (second compound 1 µM): < 5.00
pIC50 (second compound 3.16 µM): < 5.00
pIC50 (second compound 10 µM): < 5.00
viability, T/C [5]: 89.1%
viability, T/C [6]: 97.5%
viability, T/C (second compound 0.1 µM, first compound 0.316 µM): 83.5%
viability, T/C (second compound 0.1 µM, first compound 1 µM): 83.2%
viability, T/C (second compound 0.1 µM, first compound 3.16 µM): 84.6%
viability, T/C (second compound 0.1 µM, first compound 10 µM): 72.3%
viability, T/C [11]: 98.7%
viability, T/C [12]: 90.8%
viability, T/C (second compound 0.316 µM, first compound 0.316 µM): 83.4%
viability, T/C (second compound 0.316 µM, first compound 1 µM): 84.6%
viability, T/C (second compound 0.316 µM, first compound 3.16 µM): 82.1%
viability, T/C (second compound 0.316 µM, first compound 10 µM): 73.8%
viability, T/C [17]: 94.2%
viability, T/C [18]: 87.3%
viability, T/C (second compound 1 µM, first compound 0.316 µM): 87.7%
viability, T/C (second compound 1 µM, first compound 1 µM): 93%
viability, T/C (second compound 1 µM, first compound 3.16 µM): 88.1%
viability, T/C (second compound 1 µM, first compound 10 µM): 79.5%
viability, T/C [23]: 89.5%
viability, T/C [24]: 89.8%
viability, T/C (second compound 3.16 µM, first compound 0.316 µM): 92%
viability, T/C (second compound 3.16 µM, first compound 1 µM): 87.7%
viability, T/C (second compound 3.16 µM, first compound 3.16 µM): 79.8%
viability, T/C (second compound 3.16 µM, first compound 10 µM): 76.1%
viability, T/C [29]: 83.3%
viability, T/C [30]: 81.9%
viability, T/C (second compound 10 µM, first compound 0.316 µM): 86.4%
viability, T/C (second compound 10 µM, first compound 1 µM): 82.6%
viability, T/C (second compound 10 µM, first compound 3.16 µM): 80.8%
viability, T/C (second compound 10 µM, first compound 10 µM): 72.7%

— PubChem BioAssay AID1918943 (Molecular Pharmacology Branch, DTP, NCI, 2023)
